Laboratory results from US8415156B2, “Recombinant laminin-521” (Biolamina AB, priority 2010, dated 2013).

Key:
hES cells [1] = assay: Cell survival assay, 24 hours (Example 2); type: cell-based, human; conditions: for survival of hES cells plated from single cell suspension after 24 hours: O3 medium, absence of ROCK inhibitor
Method: Tissue cell culture plates were coated overnight at 4° C. with sterile solutions of the ECM proteins, such as human recombinant LN-521, all at a concentration of 30 μg/ml (5 μg/cm^2). Control plates were coated with Matrigel according to the STEMCELL Technologies' instructions. Prior to use, dishes were pre-warmed in an incubator for one hour after which prewarmed O3 medium was added without additional washing of the dish. After applying a fresh LN-521 solution to a new dish, the remaining LN-521 solution could be used at least once more. All the adhesion, survival, and inhibition of survival experiments were carried out using fresh coating materials.
Briefly, 96-well plates were coated by extracellular matrix proteins as described above and blocked by O3 medium containing bovine serum albumin. The ES cells were plated at cell density of 50,000 cells/cm^2 onto extracellular matrix-coated plates and left to adhere for 1 hour in a cell incubator. After that the plates were washed 3 times with the medium to remove the non-adherent cells, and then the adherent cells were fixed for 20 minutes by 5% glutaraldehyde, stained by 0.1% Crystal Violet. (Kebo Lab, Spanga, Sweden, www.kebolab.se). After one hour and 3 washes with water, Crystal Violet was extracted with 10% acetic acid and quantified by measuring optical density at 570 nm. All the experiments were performed in quadruplicate.
The survival assay was performed as described for the cell adhesion assay above, except that the cells were left in the cell incubator for 24 hours. For inhibition of survival assay, the cells were kept in a medium with function blocking antibodies at the concentrations recommended by the manufacturer or pathway inhibitors at concentrations indicated in the text for 30 minutes, and then plated on the coated dishes. All the experiments were performed in quadruplicate.
Pluripotent hES cells express α1, α5, β1, β2 and γ1 laminin chains. To compare the adhesion and clonal survival of hES cells plated from single cell suspension to different coating substrata, hES cells growing as monolayers on LN-511 or as clusters on a feeder layer were trypsinized into single cell suspension in O3 medium and plated on cell culture dishes coated with Matrigel, LN-111, LN-511, LN-521 or a mixture of LN-511 and LN-521, in the absence or presence of a ROCK inhibitor (Y-27632) and analyzed after 24 hours.

Integrin α6β1 = Integrin α6β1 (Homo sapiens, UniProt P05556+P23229); conditions: cited from earlier work
Integrin α6β1, sequence (P23229 24-1130): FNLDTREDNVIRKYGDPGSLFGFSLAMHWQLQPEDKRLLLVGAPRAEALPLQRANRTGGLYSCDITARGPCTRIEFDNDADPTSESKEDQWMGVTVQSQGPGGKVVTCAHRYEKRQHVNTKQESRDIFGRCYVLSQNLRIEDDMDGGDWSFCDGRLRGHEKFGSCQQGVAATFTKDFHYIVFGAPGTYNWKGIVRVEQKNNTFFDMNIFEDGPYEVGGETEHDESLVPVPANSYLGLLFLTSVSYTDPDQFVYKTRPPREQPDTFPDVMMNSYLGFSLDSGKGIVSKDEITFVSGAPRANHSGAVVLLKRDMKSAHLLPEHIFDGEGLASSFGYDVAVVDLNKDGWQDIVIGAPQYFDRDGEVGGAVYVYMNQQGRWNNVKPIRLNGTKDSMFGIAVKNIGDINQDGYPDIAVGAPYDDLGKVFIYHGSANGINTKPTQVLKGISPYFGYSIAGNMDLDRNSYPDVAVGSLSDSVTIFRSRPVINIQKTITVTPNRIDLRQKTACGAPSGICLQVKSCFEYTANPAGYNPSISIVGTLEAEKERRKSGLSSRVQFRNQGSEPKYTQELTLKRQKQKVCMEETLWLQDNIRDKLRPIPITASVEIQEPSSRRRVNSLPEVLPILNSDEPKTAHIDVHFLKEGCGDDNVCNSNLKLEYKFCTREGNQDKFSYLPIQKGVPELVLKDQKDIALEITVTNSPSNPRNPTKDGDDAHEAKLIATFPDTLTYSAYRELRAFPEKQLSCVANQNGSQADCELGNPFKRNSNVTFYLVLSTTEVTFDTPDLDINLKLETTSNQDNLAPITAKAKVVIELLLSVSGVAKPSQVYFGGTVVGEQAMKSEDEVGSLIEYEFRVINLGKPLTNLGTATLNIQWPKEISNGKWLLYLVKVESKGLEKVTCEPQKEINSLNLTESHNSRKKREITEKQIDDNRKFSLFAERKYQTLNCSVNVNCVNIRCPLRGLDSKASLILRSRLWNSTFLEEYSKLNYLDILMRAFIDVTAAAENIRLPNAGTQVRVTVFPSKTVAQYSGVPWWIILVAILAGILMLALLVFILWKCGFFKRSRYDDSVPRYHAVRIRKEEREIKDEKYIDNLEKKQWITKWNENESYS
Integrin α6β1, sequence (P05556 21-798): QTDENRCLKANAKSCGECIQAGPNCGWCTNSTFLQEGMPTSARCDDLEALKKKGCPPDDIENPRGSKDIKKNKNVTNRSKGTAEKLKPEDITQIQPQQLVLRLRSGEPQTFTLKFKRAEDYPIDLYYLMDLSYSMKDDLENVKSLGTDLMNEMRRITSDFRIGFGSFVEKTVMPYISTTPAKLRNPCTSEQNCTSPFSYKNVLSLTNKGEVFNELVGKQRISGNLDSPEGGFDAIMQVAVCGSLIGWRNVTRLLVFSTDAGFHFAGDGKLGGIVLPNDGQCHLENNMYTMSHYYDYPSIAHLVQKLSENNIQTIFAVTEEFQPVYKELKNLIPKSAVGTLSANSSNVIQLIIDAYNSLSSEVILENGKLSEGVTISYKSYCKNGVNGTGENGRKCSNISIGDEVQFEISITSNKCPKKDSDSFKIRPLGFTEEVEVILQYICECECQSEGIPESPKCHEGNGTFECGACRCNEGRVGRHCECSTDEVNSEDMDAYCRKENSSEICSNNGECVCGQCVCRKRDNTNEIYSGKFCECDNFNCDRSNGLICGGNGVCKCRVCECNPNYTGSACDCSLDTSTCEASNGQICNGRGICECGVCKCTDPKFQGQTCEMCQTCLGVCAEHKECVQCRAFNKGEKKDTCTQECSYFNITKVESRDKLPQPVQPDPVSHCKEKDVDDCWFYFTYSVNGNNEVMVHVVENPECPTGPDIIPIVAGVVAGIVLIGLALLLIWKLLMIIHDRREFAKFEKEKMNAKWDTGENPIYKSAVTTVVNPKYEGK

HS181 cells = assay: Single cell survival / cell adhesion, 1 day after plating (Example 1); type: cell-based, human; conditions: for single cell survival / cells remaining attached 24 hours after plating: O3 medium without any additives, completely dissociated HS181 cells
Method: Human ES cells were cultured on r-laminin-521-coated laboratory dishes in chemically defined O3 medium (described in Rodin et al., Nature Biotechnol., vol. 28, pp. 611-615 (2010)) at 37° C. in 5% CO2. Cells were routinely passed once every 10-12 days by exposure to Trypsin-EDTA solution (GIBCO Invitrogen) for 5 minutes at 37° C. They were then gently pipetted to break into single-cell suspension and defined trypsin inhibitor (GIBCO Invitrogen) was added. The cell suspension was centrifuged […], the supernatant discarded, the cell pellet resuspended in prewarmed O3 medium, and cells were then passed through a 40 μm sieve. After that cells were plated on new r-laminin-521-coated dishes at a concentration 30 Kcells/cm^2 (1:25-1:30 split ratio). Cells were fed once a day with fresh medium prewarmed in an incubator for 1 hour, except for the first day after a passage, when only a few drops of fresh medium were added. Control cells of the same line were cultured on Matrigel (BD Biosciences) in O3 medium as described in Rodin et al., Nature Biotechnol., vol. 28, pp. 611-615 (2010). Control cells were passaged in pieces.
Ninety-six-well tissue cell culture plates were coated overnight at 4° C. with sterile solutions of the ECM proteins mouse LN-111 (Invitrogen), human recombinant LN-511, and human recombinant LN-521, all at a concentration of 30 μg/ml (5 μg/cm^2). For control cells, BD Matrigel™ hESC qualified (BD Biosciences) was used according to the manufacturer's instructions.
The assay was performed as described (Extracellular Matrix Protocols, 2000). Briefly, 96-well plates were coated by extracellular matrix proteins as described above and blocked by O3 medium containing bovine serum albumin. The ES cells were plated at a cell density of 600 cell/mm^2 upon extracellular matrix-coated plates and were left to adhere for either 1 hour or 1 day at the cell incubator. Non-adherent cells were washed away, and adherent cells were fixed for 20 min by 5% glutaraldehyde, stained by 0.1% Crystal Violet.

mouse ES cells = conditions: without LIF or feeder cells; cited from earlier work
myosin light chain (MLC) = assay: Western blot of phosphorylated myosin light chain; type: cell-based, human; conditions: one and six hours after plating
Method: HS181 cells were trypsinized into single cell suspension as described above. For inhibition experiments, the cells were kept in O3 medium with blocking antibodies or pathway inhibitors for 30 minutes and then 450K cells were plated on 35 mm dishes precoated with the appropriate matrix coating. For other experiments, same number of cells was plated directly after trypsinization. […] After two washings in ice-cold PBS, the plates with cells were snap frozen in liquid nitrogen and stored at −80° C. To prepare samples for western blots and ELISA, the plates were slowly thawed and kept on ice with 100-150 μl of lysis buffer (50 mM Tris-HCl, pH7.5, 150 mM NaCl, 0.5% deoxycholate, 0.5% SDS, 1% Triton X-100, 1% Igepal, Complete™ (Roche) and Phospho-Stop™ (Roche)) on top. Then, the cells were scraped, pipetted and sheared through a 27G ¾″ needle. After that, the cell pellets were clarified by centrifugation at 16,100 rcf for 15 minutes at 4° C. For western blots, 4-12% gradient gels were used for SDS electrophoresis and the proteins were transferred to PVDF membranes. The membrane was hybridized with the antibody of interest according to the manufacturer's instructions. Chemoluminescent HRP-substrate from Amersham Biosciences was used for visualization. For the densitometry analysis the films were scanned at 2,400 dpi and analyzed by the Chemilmager5500 program (1D-Multi Line densitometry mode). […]

[2] = tested on: human embryonic stem cell; assay: Survival after dissociation into single cell suspension (description); type: cell-based; conditions: O3 medium; 30 Kcells/cm^2; precoated dishes
Excerpt: In other aspects, the present disclosure provides a new material, isolated laminin-521, which permits human embryonic stem cell survival after dissociation into single cell suspension. The stem cells were dissociated into single cell suspension by Trypsin-EDTA treatment, pelleted by centrifugation, resuspended into O3 medium, filtered through a 40 μm sieve, and plated at a density of 30 Kcells/cm^2 on cell culture dishes precoated by either isolated laminin-521, laminin-511, or Matrigel. After one day in culture, the cells plated on Matrigel died, as is known in the art.

human ES cells = conditions: cited from earlier work
hES cells [3] = assay: Clonal survival of individualized hES cells (Example 4); type: cell-based, human; conditions: mTeSR1
Method: hES cells were plated in mTeSR1 medium on different coatings at a density of 250 cells per cm^2 and monitored after 5 days in culture using an alkaline phosphatase staining kit.
Next, combinations of laminin-521 and E-Cadherin were tested to determine whether the combinations could sustain clonal survival of the cells. Fixed amounts of laminin-521 were used for the cell culture dish coating in combination with titrated E-Cadherin.
Additional tests were performed to test the effects of various modifications to the mTeSR1 medium. A mixture of E-Cadherin to laminin-521 in a ratio of about 1:10 w/w was used to coat the plates. […] Time-lapse photography of the cells confirmed that laminin-521/E-Cadherin coatings facilitated cell survival through proliferation of the single cells, not through the aggregation of different cells.

In the case of “LN-121: human recombinant laminin with α1, β2 and γ1 chains produced in HEK293 cells”, the “survival of hES cells plated from single cell suspension after 24 hours” value (“survival of hES cells plated … after 24 hours” below) (hES cells [1]) is reported as “failed to survive”.

In the case of “LN-511: human recombinant laminin-511 coating”, the “binding affinity of integrin α6β1” value (Integrin α6β1) is listed as “higher than that for LN-111”, the “single cell survival / cells remaining attached 24 hours after plating” value (HS181 cells) is listed as “at a less extent” and the “time of supported self-renewal of mouse ES cells” value (mouse ES cells) is listed as “over 5 months”. For the same molecule, the “phosphorylation of MLC compared with cells on Matrigel and LN-111” value (myosin light chain (MLC)) was “even higher”, the “survival of hES cells plated from single cell suspension after one day in culture” value [2] was “in most cases on laminin-511 survived and started to proliferate” and the “survival of hES cells plated … after 24 hours” value (hES cells [1]) was “did so as single cells”. For the same molecule, the “time human ES cells maintain pluripotency and can generate teratomas in SCID mice” value (human ES cells) was “over 3 months”.

With “LN-111: mouse laminin-111 (Invitrogen), indicated as LN-111 if not otherwise stated” the “single cell survival / cells remaining attached 24 hours after plating” value (HS181 cells) was “almost no cells remained attached” and the “survival of hES cells plated … after 24 hours” value (hES cells [1]) was “did not survive”.

In the case of “human recombinant LN-111: human recombinant laminin with α1, β1 and γ1 chains produced in HEK293 cells”, the “survival of hES cells plated … after 24 hours” value (hES cells [1]) is reported as “failed to survive”.

In the case of “albumin: albumin of the mTeSR1 medium, concentration increased 2×”, the “effect of 2× increase in albumin concentration on clonal survival” value (hES cells [3]; laminin-521/E-Cadherin matrix) is reported as “significantly improved clonal survival”.

In the case of `C[C@@H](N)[C@H]1CC[C@H](C(=O)Nc2ccncc2)CC1` [Y-27632, reference compound], the “cells remaining attached after one day with ROCK inhibitor” value (HS181 cells; O3 medium treated with Y-27632, 5 coatings) is reported as “remained attached on all 5 coatings”, the “cell shape of cells growing on LN-521 24 hours after plating” value (hES cells [1]; LN-521 row: absence of ROCK inhibitor, Y-27632 row: presence of ROCK inhibitor) is reported as “spindle or crescent like shape” and the “survival of hES cells after 24 hours in the presence of ROCK inhibitor” value (hES cells [1]; all coating surfaces) is reported as “survived on all surfaces”.

B1: E-Cadherin: epithelial-cadherin, most abundant cadherin isoform on the human ES cell surface (protein, UniProt P12830 155-882, looked up)
Cadherin-1: DWVIPPISCPENEKGPFPKNLVQIKSNKDKEGKVFYSITGQGADTPPVGVFIIERETGWLKVTEPLDRERIATYTLFSHAVSSNGNAVEDPMEILITVTDQNDNKPEFTQEVFKGSVMEGALPGTSVMEVTATDADDDVNTYNAAIAYTILSQDPELPDKNMFTINRNTGVISVVTTGLDRESFPTYTLVVQAADLQGEGLSTTATAVITVTDTNDNPPIFNPTTYKGQVPENEANVVITTLKVTDADAPNTPAWEAVYTILNDDGGQFVVTTNPVNNDGILKTAKGLDFEAKQQYILHVAVTNVVPFEVSLTTSTATVTVDVLDVNEAPIFVPPEKRVEVSEDFGVGQEITSYTAQEPDTFMEQKITYRIWRDTANWLEINPDTGAISTRAELDREDFEHVKNSTYTALIIATDNGSPVATGTGTLLLILSDVNDNAPIPEPRTIFFCERNPKPQVINIIDADLPPNTSPFTAELTHGASANWTIQYNDPTQESIILKPKMALEVGDYKINLKLMDNQNKDQVTTLEVSVCDCEGAAGVCRKAQPVEAGLQIPAILGILGGILALLILILLLLLFLRRRAVVKEPLLPPEDDTRDNVYYYDEEGGGEEDQDFDLSQLHRGLDARPEVTRNDVAPTLMSVPRYLPRPANPDEIGNFIDENLKAADTDPTAPPYDSLLVFDYEGSGSEAASLSSLNSSESDKDQDYDYLNEWGNRFKKLADMYGGGEDD
With B1 the “clonal survival of individualized hES cells” value (hES cells [3]; 250 cells per cm^2, 5 days, alkaline phosphatase staining) was “Neither laminin-521 nor E-Cadherin alone permitted efficient clonal survival”.
